Active and inactive are the calls of the source. No cut-off for these calls is given here.
Tests used:
[1] = test system: B16-F10; assay: Inhibition of SNP-induced NO production in mouse B16F10 cells assessed as decrease of intracellular cGMP level at 16 uM incubated for 1 hr prior to SNP challenge measured after 30 mins by EIA relative to control; assay type: functional; details: values are per cent of control
[2] = test system: B16-F10; assay: Inhibition of SNP-induced NO production in mouse B16F10 cells at 16 uM incubated 1 hr prior to SNP challenge measured after 48 hrs by Griess assay (reference value: 237.84 +/- 4.12%); values are per cent of control
[3] = test system: B16-F10; assay: Antimelanogenic activity in mouse B16F10 cells assessed as reduction of SNP-induced melanin level at 16 uM incubated for 1 hr prior to SNP challenge measured after 48 hrs (reference value: 282.59 +/- 47.06%); assay type: functional
[4] = molecular target: T1, Tyrosinase (Mus musculus) (UniProt P11344); assay: Inhibition of tyrosinase in mouse B16F10 cells at 30 uM incubated for 1 hr prior to SNP challenge measured after 48 hrs (reference value: 198.83 +/- 11.46%); assay type: cell-based; details: B16-F10
T1 sequence (whole entry): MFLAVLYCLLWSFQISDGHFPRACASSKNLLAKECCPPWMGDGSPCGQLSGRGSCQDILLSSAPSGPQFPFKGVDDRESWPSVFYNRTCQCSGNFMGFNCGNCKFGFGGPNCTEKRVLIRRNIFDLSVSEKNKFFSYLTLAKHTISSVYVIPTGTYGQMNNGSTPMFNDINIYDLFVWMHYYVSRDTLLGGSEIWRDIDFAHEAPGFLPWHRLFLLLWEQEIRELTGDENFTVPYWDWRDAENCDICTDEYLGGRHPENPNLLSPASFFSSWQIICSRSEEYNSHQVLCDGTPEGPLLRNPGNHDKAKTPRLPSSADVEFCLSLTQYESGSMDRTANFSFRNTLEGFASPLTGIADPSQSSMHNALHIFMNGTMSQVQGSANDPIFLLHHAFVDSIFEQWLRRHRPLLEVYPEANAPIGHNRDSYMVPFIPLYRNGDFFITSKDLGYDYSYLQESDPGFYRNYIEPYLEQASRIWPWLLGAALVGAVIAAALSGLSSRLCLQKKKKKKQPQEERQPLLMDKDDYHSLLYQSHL

[5] = test system: B16-F10; assay: Antimelanogenic activity in mouse B16F10 cells assessed as reduction in SNP-induced phosphorylated CREB level at 16 uM by Western blotting analysis; assay type: functional, cell-based
[6] = test system: B16-F10; assay: Antimelanogenic activity in mouse B16F10 cells assessed as reduction of SNP-induced melanin level at 4 uM incubated for 1 hr prior to SNP challenge measured after 48 hrs (reference value: 282.59 +/- 47.06%); assay type: functional
[7] = test system: B16-F10; assay: Antimelanogenic activity in mouse B16F10 cells assessed as reduction of SNP-induced melanin level incubated for 1 hr prior to SNP challenge measured after 48 hrs; assay type: functional, cell-based
[8] = test system: B16-F10; assay: Antimelanogenic activity in mouse B16F10 cells assessed as reduction of SNP-induced melanin level at 0.5 uM incubated for 1 hr prior to SNP challenge measured after 48 hrs (reference value: 282.59 +/- 47.06%); assay type: functional
[9] = molecular target: T1, Tyrosinase (Mus musculus); assay: Inhibition of tyrosinase in SNP-stimulated mouse B16F10 cells at 0.5 uM incubated for 1 hr prior to SNP challenge measured after 48 hrs (reference value: 198.83 +/- 11.46%); assay type: cell-based; details: B16-F10, values are per cent of control
[10] = test system: B16-F10; assay: Inhibition of SNP-induced NO production in mouse B16F10 cells assessed as decrease of intracellular cGMP level at 0.5 uM incubated for 1 hr prior to SNP challenge measured after 30 mins by EIA relative to control; assay type: functional; details: values are per cent of control
[11] = test system: B16-F10; assay: Antimelanogenic activity in mouse B16F10 cells assessed as reduction in SNP-induced phosphorylated CREB level at 0.5 to 4 uM by Western blotting analysis; assay type: functional, cell-based
[12] = molecular target: T1, Tyrosinase (Mus musculus); assay: Inhibition of tyrosinase in SNP-stimulated mouse B16F10 cells at 16 uM incubated for 1 hr prior to SNP challenge measured after 48 hrs (reference value: 198.83 +/- 11.46%); assay type: cell-based; details: B16-F10, values are per cent of control
[13] = test system: B16-F10; assay: Antimelanogenic activity in mouse B16F10 cells assessed as reduction in SNP-induced tyrosinase protein level by Western blotting analysis; assay type: functional, cell-based
[14] = molecular target: T1, Tyrosinase (Mus musculus); assay: Inhibition of tyrosinase in SNP-stimulated mouse B16F10 cells at 4 uM incubated for 1 hr prior to SNP challenge measured after 48 hrs (reference value: 198.83 +/- 11.46%); assay type: cell-based; details: B16-F10, values are per cent of control
[15] = test system: B16-F10; assay: Inhibition of SNP-induced NO production in mouse B16F10 cells assessed as decrease of intracellular cGMP level at 4 uM incubated for 1 hr prior to SNP challenge measured after 30 mins by EIA relative to control; assay type: functional; details: values are per cent of control
[16] = test system: B16-F10; assay: Inhibition of SNP-induced NO production in mouse B16F10 cells assessed as decrease of intracellular cGMP level incubated for 1 hr prior to SNP challenge measured after 30 mins by EIA relative to control; assay type: functional, cell-based
[17] = test system: B16-F10; assay: Inhibition of SNP-induced NO production in mouse B16F10 cells incubated 1 hr prior to SNP challenge measured after 48 hrs by Griess assay; assay type: functional, cell-based
[18] = test system: B16-F10; assay: Inhibition of SNP-induced NO production in mouse B16F10 cells at 4 uM incubated 1 hr prior to SNP challenge measured after 48 hrs by Griess assay (reference value: 237.84 +/- 4.12%); values are per cent of control
[19] = test system: B16-F10; assay: Inhibition of SNP-induced NO production in mouse B16F10 cells at 0.5 uM incubated 1 hr prior to SNP challenge measured after 48 hrs by Griess assay (reference value: 237.84 +/- 4.12%); values are per cent of control
[20] = test system: B16-F10; assay: Antimelanogenic activity in mouse B16F10 cells assessed as reduction in SNP-induced nuclear MITF level by Western blotting analysis; assay type: functional, cell-based

SMILES: CC1(C)N([O])C(c2ccc(C(=O)O)cc2)=[N+]([O-])C1(C)C
- response, % of control at 16 µM [1]: 153%
- level, % of control at 16 µM [2]: 206%
- level, % of control at 16 µM [3]: 173%
- inhibition [4]: 34.3%
- inhibition [5]: Active

SMILES: O=C1NC(=O)/C(=C/c2ccc(O)cc2O)S1
- response, % of control at 16 µM [1]: 83.1%
- level, % of control at 4 µM [6]: 114%
- inhibition [7]: Dose-dependent effect
- level, % of control at 16 µM [2]: 172%
- level, % of control at 0.5 µM [8]: 151%
- level, % of control at 16 µM [3]: 100%
- residual activity [9]: 84.8%
- response, % of control at 0.5 µM [10]: 177%
- inhibition [11]: inactive
- residual activity [12]: 31.8%
- inhibition [13]: Dose-dependent effect
- residual activity [14]: 60.5%
- response, % of control at 4 µM [15]: 154%
- inhibition [16]: Dose-dependent effect
- inhibition [17]: Dose-dependent effect
- level, % of control at 4 µM [18]: 183%
- level, % of control at 0.5 µM [19]: 200%
- inhibition [5]: Active
- inhibition [20]: Dose-dependent effect

Reference: ChEMBL document CHEMBL2406931, “The inhibitory effect of a synthetic compound, (Z)-5-(2,4-dihydroxybenzylidene) thiazolidine-2,4-dione (MHY498), on nitric oxide-induced melanogenesis” (2013)
